Data set [1] relates to human desmodontal fibroblasts. The settings on record: cited from earlier work.
The next data set relates to dentoalveolar infections. In words: Controlled clinical trial, taurolidine vs conventional therapy, all 6 indications pooled: target variables. The class given is in vivo, patients. The procedure: (§1) The in-vivo tests were carried out at the Clinic for Maxillofacial Surgery, Munich University between 1989 and 1992. In accordance with modern biometric principles the study was planned as a controlled clinical trial, i.e. it was conducted according to a prospective, protective, randomized, monocentre and simple blind design.
The following 6 indications examined were selected specifically on the basis of their incidence and clinical relevance.
(§2) The test substances investigated were 4 different galenic presentation forms of the active component taurolidine and 4 conventional finished pharmaceuticals.
(§3) For each of the 6 indications investigated an exact therapeutic procedure was fixed. The surgical management was carried out according to the individual situation in the usual manner. Tables 1 and 2 show the antimicrobial therapy regimens defined for patient groups A (Taurolidine group) and B (Standard group). It is evident, that the only difference, with the same quantity of substance applied in the same form, was the choice of preparation.
(§4) For critical examination of the effectiveness of the different pharmaceuticals concerning therapeutic success and total treatment time clinical parameters reflecting the progress of recovery were controlled and documented at every session. The following 6 target variables were defined and evaluated by a uniform scale (0=none to 4=very strong):
(§5) The score-level 5 (total) was given at the moment of complete remission and describes consequently the final point of treatment.
(§6) 200 cases were treated in each indication group, the total number amounted to 1,200. The distribution into the two therapy regimens was realised by random sampling. Statistical evaluations were made by means of testing methods described in customary literature.

Data set [2] relates to Alveolitis sicca dolorose. Description: Controlled clinical trial, total treatment time to complete remission: alveolitis. Format: in vivo, patients. The settings on record: TAUR: T-Irrigation fluid 3% + T-Dental emulsion 3%, STANDARD: NaCl 0.9% + AUREOMYCIN Ointment 3%, n=100 per group. Here is the method:
as §1, §2, §3, §4, §5, §6

The next data set has as its system Gangrene. Description: Controlled clinical trial, total treatment time to complete remission: gangrene. Format: in vivo, patients. The note with it: TAUR: T-Irrigation fluid 3% + T-Liquid gel 3%, STANDARD: H2O2 3% + CHKM Solution, n=100 per group. Here is the method:
as §1, §2, §3, §4, §5, §6

The test system of the next data set is Parodontitis marginalis. In words: Controlled clinical trial, total treatment time to complete remission: parodontitis. The settings on record: TAUR: T-Liquid gel 3% + T-Dental emulsion 3%, STANDARD: DONTISOLON Ointment M, n=100 per group. The class given is in vivo, patients. Here is the method: as §1, §2, §3, §4, §5, §6
A further data set has as its system Pericoronitis. In words: Controlled clinical trial, total treatment time to complete remission: pericoronitis. The note with it: TAUR: T-Irrigation fluid 3% + T-Dental emulsion 3%, STANDARD: NaCl 0.9% + AUREOMYCIN Ointment 3%, n=100 per group. Format: in vivo, patients. The procedure: as §1, §2, §3, §4, §5, §6
The test system of a further data set is Abscess. Description: Controlled clinical trial, total treatment time to complete remission: abscess. The note with it: TAUR: T-Irrigation fluid 3% + T-Dental emulsion 3%, STANDARD: NaCl 0.9% + AUREOMYCIN Ointment 3%, n=100 per group. The class given is in vivo, patients. The procedure:
as §1, §2, §3, §4, §5, §6

The next data set relates to Infection Prophylaxis. Description: Controlled clinical trial, total treatment time to complete remission: infection prophylaxis. Format: in vivo, patients. The note with it: TAUR: T-Dental gel 2%, STANDARD: CHLORHEXAMED Dental gel 1%, n=100 per group. Here is the method: as §1, §2, §3, §4, §5, §6
The conditions of data set [3]: background statement; cited from earlier work.
Where [4] appears, read: all 6 indications, n=600 per group, maximum.
[5] abbreviates: all 6 indications, n=600 per group, mean.
Where [6] appears, read: all 6 indications, n=600 per group, minimum.

With `[H]/N=C(\N/C(=N/[H])NCCCCCCNC(=N)NC(=N)Nc1ccc(Cl)cc1)Nc1ccc(Cl)cc1` [Chlorhexidine], the cell damage entry in data set [1] was “accelerated ageing and a cytopathological effect”.
In the case of `O=S1(=O)CCN(CN2CCS(=O)(=O)NC2)CN1` [TAUR, taurolidine], in the data set with dentoalveolar infections (setting [4]), the “PAIN TIME, Maximum” value is reported as 14 days; the “PERCUSSION TIME, Maximum” value is given as 13 days; the “PRESSURE PAIN TIME, Maximum” value came out at 15 days; the “SECRETION TIME, Maximum” value is on record as 15 days. For the same compound, the “SWELLING TIME, Maximum” value in the data set with dentoalveolar infections (setting [4]) stood at 14 days. In the data set on dentoalveolar infections (setting [5]), the “PERCUSSION TIME, Mean” value is reported as 1.9 days; the “PRESSURE PAIN TIME, Mean” value came out at 5.3 days; the “SECRETION TIME, Mean” value is 3.9 days; the “SWELLING TIME, Mean” value was found to be 4.5 days. In the data set with dentoalveolar infections (setting [6]), the “PAIN TIME, Minimum” value is 1 days; the “PERCUSSION TIME, Minimum” value is on record as 1 days; the “PRESSURE PAIN TIME, Minimum” value was found to be 1 days; the “SECRETION TIME, Minimum” value is on record as 1 days. Further, in the data set with dentoalveolar infections (setting [6]), the “SWELLING TIME, Minimum” value amounted to 1 days. Besides, the “effectiveness against standard therapy (more rapid recovery)” value in the data set with dentoalveolar infections (all 6 indications, p<0.0001) is “superior effectiveness”. In addition, the “side effects after application” value with dentoalveolar infections (during the acute period of inflammation) is “slight pain for some minutes after application”. The “optional antibiotics and analgetics required/administered” value in the data set on dentoalveolar infections (taurolidine group vs standard group, p=0.007 resp. p=0.01) is recorded as “significantly less”. Moreover, in the data set on dentoalveolar infections (taurolidine vs conventional treatment), the “pain-free earlier than under conventional treatment (average)” value was 2 days. The “ALVEOLITIS, total treatment TIME (remission), Maximum” value in [2] (maximum) was determined as 15 days. In addition, the “ALVEOLITIS, total treatment TIME (remission), Mean” value in data set [2] (mean) is given as 5.6 days. Further, the “ALVEOLITIS, total treatment TIME (remission), Minimum” value in [2] (minimum) worked out at 3 days. Also, in the data set with Gangrene (maximum), the “GANGRENE, total treatment TIME (remission), Maximum” value was 10 days. Also, the “GANGRENE, total treatment TIME (remission), Mean” value in the data set on Gangrene (mean) is recorded as 5.0 days. Moreover, the “GANGRENE, total treatment TIME (remission), Minimum” value in the data set on Gangrene (minimum) was 2 days. The “PARODONTITIS, total treatment TIME (remission), Maximum” value in the data set on Parodontitis marginalis (maximum) is 14 days. Moreover, the “PARODONTITIS, total treatment TIME (remission), Mean” value in the data set with Parodontitis marginalis (mean) amounted to 5.1 days. Besides, in the data set on Parodontitis marginalis (minimum), the “PARODONTITIS, total treatment TIME (remission), Minimum” value is 2 days. In the data set with Pericoronitis (maximum), the “PERICORONITIS, total treatment TIME (remission), Maximum” value amounted to 12 days. Further, the “PERICORONITIS, total treatment TIME (remission), Mean” value in the data set with Pericoronitis (mean) stood at 5.1 days. For the same compound, in the data set on Pericoronitis (minimum), the “PERICORONITIS, total treatment TIME (remission), Minimum” value turned out to be 2 days. For the same compound, the “ABSCESS, total treatment TIME (remission), Maximum” value in the data set with Abscess (maximum) was 13 days. In the data set on Abscess (mean), the “ABSCESS, total treatment TIME (remission), Mean” value stood at 5.5 days. Further, in the data set on Abscess (minimum), the “ABSCESS, total treatment TIME (remission), Minimum” value amounted to 2 days. In addition, in the data set on Infection Prophylaxis (maximum), the “INFECT. PROPHYLAXIS, total treatment TIME (remission), Maximum” value was 13 days. In addition, the “INFECT. PROPHYLAXIS, total treatment TIME (remission), Mean” value in the data set on Infection Prophylaxis (mean) came to 7.5 days. The “INFECT. PROPHYLAXIS, total treatment TIME (remission), Minimum” value in the data set with Infection Prophylaxis (minimum) is listed as 3 days.
On to Neomycin, for which, in data set [3], the allergy rate is given as 15-30%.

The record behind these values is patent US6488912B1, “Treatment of dentoalveolar infections with taurolidine and/or taurultam” (Ed. Geistlich Soehne AG fuer Chemische Industrie, priority 1992, dated 2002).
